Values quoted from earlier work in patent US20190240144A1, “EFFERVESCENT DEFERIPRONE TABLET” (priority 2016, published 2019).

Settings: in vivo

half-life (t1/2): 5-10 minus
SMILES: CC(=O)N(O)CCCCCNC(=O)CCC(=O)N(O)CCCCCNC(=O)CCC(=O)N(O)CCCCCN [deferoxamine]
